Measurements as given in ChEMBL document CHEMBL1641363, “Fragment-based discovery of 6-substituted isoquinolin-1-amine based ROCK-I inhibitors” (Bioorg Med Chem Lett, 2011).

Experiments:
[1] = target: T1, Rho-associated protein kinase 1 (Homo sapiens, UniProt Q13464); assay: Displacement of Y-27632 from ROCK-1 assessed as drop in intensity of binding signals by NMR competition experiment; parameters: concentration or dose not given beside the values
Target sequence in this assay (Q13464 2-1354 limits assumed): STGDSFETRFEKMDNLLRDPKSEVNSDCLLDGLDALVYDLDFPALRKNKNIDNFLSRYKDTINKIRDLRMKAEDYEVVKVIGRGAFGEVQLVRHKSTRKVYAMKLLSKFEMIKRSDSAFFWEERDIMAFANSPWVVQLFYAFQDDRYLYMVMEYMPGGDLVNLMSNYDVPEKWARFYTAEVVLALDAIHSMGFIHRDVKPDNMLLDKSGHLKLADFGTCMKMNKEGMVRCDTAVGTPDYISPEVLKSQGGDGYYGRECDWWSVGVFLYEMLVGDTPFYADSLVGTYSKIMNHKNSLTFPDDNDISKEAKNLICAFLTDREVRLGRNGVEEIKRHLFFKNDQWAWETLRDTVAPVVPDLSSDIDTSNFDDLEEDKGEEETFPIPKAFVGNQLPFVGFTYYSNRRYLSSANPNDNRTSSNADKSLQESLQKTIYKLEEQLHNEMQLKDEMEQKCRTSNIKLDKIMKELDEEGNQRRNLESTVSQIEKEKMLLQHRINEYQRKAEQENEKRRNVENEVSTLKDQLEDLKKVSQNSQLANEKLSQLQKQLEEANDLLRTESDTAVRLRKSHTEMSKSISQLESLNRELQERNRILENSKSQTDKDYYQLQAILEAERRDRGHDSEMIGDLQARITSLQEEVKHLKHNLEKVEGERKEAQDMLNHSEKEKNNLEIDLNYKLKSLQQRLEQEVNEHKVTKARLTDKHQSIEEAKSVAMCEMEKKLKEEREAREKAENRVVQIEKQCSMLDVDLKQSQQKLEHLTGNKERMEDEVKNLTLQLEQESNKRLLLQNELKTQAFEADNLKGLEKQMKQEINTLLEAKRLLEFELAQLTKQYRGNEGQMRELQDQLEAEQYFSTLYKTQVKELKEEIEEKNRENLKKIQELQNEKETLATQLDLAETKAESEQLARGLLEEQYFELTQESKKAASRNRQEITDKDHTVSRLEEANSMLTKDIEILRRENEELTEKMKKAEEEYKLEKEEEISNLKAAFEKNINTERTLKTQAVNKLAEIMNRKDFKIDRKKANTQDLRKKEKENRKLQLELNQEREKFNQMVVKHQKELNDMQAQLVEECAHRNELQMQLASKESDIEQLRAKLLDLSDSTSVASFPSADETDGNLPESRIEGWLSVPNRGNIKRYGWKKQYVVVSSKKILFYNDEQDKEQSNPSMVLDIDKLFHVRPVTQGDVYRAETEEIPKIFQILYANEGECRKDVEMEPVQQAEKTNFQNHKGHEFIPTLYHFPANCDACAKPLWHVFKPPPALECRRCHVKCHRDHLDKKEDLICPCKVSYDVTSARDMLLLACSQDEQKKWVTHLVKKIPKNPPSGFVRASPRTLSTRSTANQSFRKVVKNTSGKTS

[2] = target: T1, Rho-associated protein kinase 1; assay: Inhibition of ROCK-1 by Immobilized metal ion affinity-based fluorescence polarization assay
Target sequence in this assay (Q13464 whole entry): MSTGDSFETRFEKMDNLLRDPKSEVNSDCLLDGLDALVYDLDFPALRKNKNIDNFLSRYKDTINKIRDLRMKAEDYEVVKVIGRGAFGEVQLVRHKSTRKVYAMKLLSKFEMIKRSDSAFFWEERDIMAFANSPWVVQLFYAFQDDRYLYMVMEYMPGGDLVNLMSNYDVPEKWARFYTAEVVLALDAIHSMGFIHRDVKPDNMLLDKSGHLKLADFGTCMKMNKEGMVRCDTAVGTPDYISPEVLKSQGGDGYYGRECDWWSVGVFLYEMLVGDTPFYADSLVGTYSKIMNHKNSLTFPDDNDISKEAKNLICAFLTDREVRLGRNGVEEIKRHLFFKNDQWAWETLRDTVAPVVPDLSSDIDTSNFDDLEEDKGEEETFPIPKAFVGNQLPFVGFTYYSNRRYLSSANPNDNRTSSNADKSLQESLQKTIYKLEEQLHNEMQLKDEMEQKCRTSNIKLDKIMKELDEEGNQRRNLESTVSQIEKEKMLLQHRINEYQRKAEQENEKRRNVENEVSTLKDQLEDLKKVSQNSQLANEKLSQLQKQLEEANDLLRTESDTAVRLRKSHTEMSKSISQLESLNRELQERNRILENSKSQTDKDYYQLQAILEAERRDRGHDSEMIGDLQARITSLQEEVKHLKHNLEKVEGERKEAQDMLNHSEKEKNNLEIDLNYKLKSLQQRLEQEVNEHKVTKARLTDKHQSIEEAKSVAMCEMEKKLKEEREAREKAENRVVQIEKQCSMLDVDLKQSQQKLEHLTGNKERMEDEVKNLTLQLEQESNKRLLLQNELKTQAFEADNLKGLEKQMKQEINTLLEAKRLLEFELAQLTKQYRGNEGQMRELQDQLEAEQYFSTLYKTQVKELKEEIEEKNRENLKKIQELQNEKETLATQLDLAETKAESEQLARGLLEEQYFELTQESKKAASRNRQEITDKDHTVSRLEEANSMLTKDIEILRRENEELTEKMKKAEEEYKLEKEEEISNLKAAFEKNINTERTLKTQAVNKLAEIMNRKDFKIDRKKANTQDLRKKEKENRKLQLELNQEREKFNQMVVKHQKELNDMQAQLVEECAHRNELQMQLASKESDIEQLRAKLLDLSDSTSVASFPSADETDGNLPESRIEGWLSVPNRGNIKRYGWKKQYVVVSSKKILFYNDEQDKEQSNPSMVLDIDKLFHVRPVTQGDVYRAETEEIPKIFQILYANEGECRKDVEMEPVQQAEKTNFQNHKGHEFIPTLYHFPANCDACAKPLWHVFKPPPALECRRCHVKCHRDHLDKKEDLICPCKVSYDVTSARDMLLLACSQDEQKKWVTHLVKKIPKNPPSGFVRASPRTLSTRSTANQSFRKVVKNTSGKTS

[3] = Half life in human liver microsome; format: ADME; settings: liver microsomes
[4] = Half life in rat liver microsome; format: ADME; settings: liver microsomes
[5] = Half life in mouse liver microsome; format: ADME; settings: liver microsomes
[6] = Half life in rat hepatocyte; format: ADME, cell-based, Liver; settings: hepatocytes
[7] = Permeability from apical to basolateral side of human Caco2 cells; format: ADME, cell-based; settings: Caco-2, read-out: permeability
[8] = Permeability from basolateral to apical side of human Caco2 cells; format: ADME, cell-based; settings: Caco-2, read-out: permeability
[9] = Oral bioavailability in Wistar rat; format: ADME, organism-based; settings: in vivo
[10] = Plasma clearance in Wistar rat; format: ADME, organism-based
[11] = Volume of distribution at steady state in Wistar rat; format: ADME, organism-based; settings: in vivo, read-out: Vdss
[12] = Half life in Wistar rat; format: ADME, organism-based; settings: in vivo
[13] = target: T1, Rho-associated protein kinase 1; assay: Inhibition of ROCK-1
Target sequence in this assay (Q13464 whole entry): as above

[14] = target: Rho-associated protein kinase 2 (Homo sapiens, UniProt O75116); assay: Inhibition of ROCK-2 by Immobilized metal ion affinity-based fluorescence polarization assay
[15] = target: Voltage-gated inwardly rectifying potassium channel KCNH2 (Homo sapiens, UniProt Q12809); assay: Displacement of [3H]dofetilide from human ERG
[16] = Dissociation constant, pKa of the compound; format: physicochemical
[17] = Oral bioavailability in C57 mouse; format: ADME, organism-based; settings: in vivo
[18] = Plasma clearance in C57 mouse; format: ADME, organism-based
[19] = Volume of distribution at steady state in C57 mouse; format: ADME, organism-based; settings: in vivo, read-out: Vdss
[20] = Half life in C57 mouse; format: ADME, organism-based; settings: in vivo

Chain of Voltage-gated inwardly rectifying potassium channel KCNH2 (Q12809 whole entry): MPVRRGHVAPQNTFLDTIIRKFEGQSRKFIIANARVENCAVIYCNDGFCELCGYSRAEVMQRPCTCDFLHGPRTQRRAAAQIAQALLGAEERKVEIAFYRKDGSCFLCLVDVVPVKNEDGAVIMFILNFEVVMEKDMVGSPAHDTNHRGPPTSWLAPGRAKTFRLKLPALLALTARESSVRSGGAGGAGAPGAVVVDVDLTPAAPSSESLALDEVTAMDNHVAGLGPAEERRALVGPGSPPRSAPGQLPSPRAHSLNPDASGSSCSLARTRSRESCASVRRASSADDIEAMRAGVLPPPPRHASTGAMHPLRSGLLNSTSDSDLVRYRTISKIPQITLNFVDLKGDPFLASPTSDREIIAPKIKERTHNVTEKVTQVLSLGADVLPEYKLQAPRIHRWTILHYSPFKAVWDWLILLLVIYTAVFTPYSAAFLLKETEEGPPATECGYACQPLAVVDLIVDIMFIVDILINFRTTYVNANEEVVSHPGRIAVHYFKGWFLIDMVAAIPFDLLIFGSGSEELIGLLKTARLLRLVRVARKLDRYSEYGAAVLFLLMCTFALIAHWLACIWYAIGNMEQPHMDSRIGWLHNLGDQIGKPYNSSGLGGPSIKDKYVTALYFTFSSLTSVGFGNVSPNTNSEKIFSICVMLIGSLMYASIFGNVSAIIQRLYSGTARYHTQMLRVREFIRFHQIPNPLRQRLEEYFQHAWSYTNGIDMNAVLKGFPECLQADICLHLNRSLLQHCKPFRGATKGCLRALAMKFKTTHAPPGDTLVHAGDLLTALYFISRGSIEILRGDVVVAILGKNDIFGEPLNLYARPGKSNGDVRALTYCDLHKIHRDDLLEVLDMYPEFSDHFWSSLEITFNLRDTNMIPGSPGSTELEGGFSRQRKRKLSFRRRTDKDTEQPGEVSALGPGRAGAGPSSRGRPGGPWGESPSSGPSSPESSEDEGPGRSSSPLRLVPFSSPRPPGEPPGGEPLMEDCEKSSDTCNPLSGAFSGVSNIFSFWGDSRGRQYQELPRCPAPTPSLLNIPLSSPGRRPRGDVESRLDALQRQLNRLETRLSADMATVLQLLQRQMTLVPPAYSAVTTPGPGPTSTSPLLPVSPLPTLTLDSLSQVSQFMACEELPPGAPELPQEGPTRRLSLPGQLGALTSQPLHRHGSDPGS

SMILES: c1cc(N2CCOCC2)ccn1
- Activity [1]: > 80%

SMILES: CC1(C)C(=O)Nc2ccccc21
- Activity [1]: 25%

SMILES: O=C(Nc1nccs1)c1ccncc1
- Activity [1]: > 80%

SMILES: CN(CCc1ccccc1)Cc1ccc2c(N)nccc2c1
- IC50 [2]: 427 nM

SMILES: Nc1nccc2cc(CNCc3ccc4ccccc4c3)ccc12
- IC50 [2]: 3470 nM

SMILES: Nc1ccnc2ccncc12
- Activity [1]: > 80%

SMILES: CS(=O)(=O)N1CCC[C@H](Oc2ccc3c(N)nccc3c2)C1
- IC50 [2]: > 100000 nM

SMILES: Nc1nccc2cc(O[C@H]3CCCN(Cc4ccccc4)C3)ccc12
- half-life [3]: 12 min
- half-life [4]: 22 min
- half-life [5]: > 120 min
- half-life [6]: 27 min
- Papp A→B [7]: 2.2 ×10⁻⁶ cm/s
- Papp B→A [8]: 1.5 ×10⁻⁶ cm/s
- bioavailability [9]: 7%
- clearance [10]: 295 mL/min/kg
- Vd [11]: 8.2 L/kg
- half-life [12]: 492 min

SMILES: c1ccc(-n2cccc2)nc1
- Activity [1]: 30%

SMILES: CC1=NC(C(C)C)CO1 (configuration not stated)
- Activity [1]: 40%

SMILES: COc1ccc(CCNCc2ccc3c(N)nccc3c2)cc1
- IC50 [2]: 1000 nM

SMILES: Nc1nccc2cc(CNCCc3ccncc3)ccc12
- IC50 [2]: 1860 nM

SMILES: Nc1nccc2cc(OC3CCNCC3)ccc12
- IC50 [2]: 3630 nM

SMILES: Nc1nccc2cc(OC3CCN(Cc4ccccc4)CC3)ccc12
- IC50 [2]: 4270 nM

SMILES: Nc1nccc2cc(CNCCc3ccccc3)ccc12
- IC50 [2]: 1290 nM
- Ki [13]: 63.1 nM
- IC50 [14]: 1290 nM
- Ki [15]: 3160 nM

SMILES: c1ccn2ccnc2c1
- Activity [1]: 38%

SMILES: Nc1ncnc2ccccc12
- Activity [1]: > 80%

SMILES: c1cc(-c2cnco2)ccn1
- Activity [1]: > 80%

SMILES: c1ccc2[nH]ncc2c1
- Activity [1]: > 80%

SMILES: CC(=O)c1ccccc1
- Activity [1]: 60%

SMILES: NC(=O)c1ccccc1O
- Activity [1]: 34%

SMILES: Nc1nccc2cc(CNCc3ccccc3)ccc12
- IC50 [2]: 6760 nM

SMILES: Cn1nc(C(C)(C)C)cc1N
- Activity [1]: 20%

SMILES: NCc1ccc2c(N)nccc2c1
- IC50 [2]: 7760 nM
- pKa [16]: 7.6

SMILES: Nc1nccc2cc(CNCCc3ccc(Cl)c(Cl)c3)ccc12
- IC50 [2]: 776 nM

SMILES: Nc1nccc2cc(CNCCNc3ccccc3)ccc12
- IC50 [2]: 1480 nM

SMILES: C[C@@H](N)[C@H]1CC[C@H](C(=O)Nc2ccncc2)CC1 [Y-27632]
- bioavailability [17]: 52%
- clearance [18]: 50.9 mL/min/kg
- Vd [19]: 3.8 L/kg
- half-life [20]: 100 min

SMILES: O=S(=O)(c1cccc2c(O)nccc12)N1CCCNCC1 [HYDROXYFASUDIL]
- Ki [15]: 7940 nM
- bioavailability [17]: 57%
- clearance [18]: 34 mL/min/kg
- Vd [19]: 2.4 L/kg
- half-life [20]: 45 min

SMILES: Nc1nc2c(c(=O)[nH]1)CC=N2
- Activity [1]: 68%

SMILES: O=S(=O)(c1cccc2cnccc12)N1CCCNCC1 [FASUDIL]
- bioavailability [17]: 3.6%
- Vd [19]: 1.8 L/kg

SMILES: Nc1nccc2cc(CNCCc3cccc(C(F)(F)F)c3)ccc12
- IC50 [2]: 1700 nM

SMILES: Cc1ccc(CCNCc2ccc3c(N)nccc3c2)cc1
- IC50 [2]: 813 nM

SMILES: Nc1nccc2cc(CNCCOc3ccccc3)ccc12
- IC50 [2]: 589 nM

SMILES: Nc1nccc2cc(CNCc3cccc(Oc4ccccc4)c3)ccc12
- IC50 [2]: 575 nM

SMILES: c1ccc2[nH]cnc2c1
- Activity [1]: 64%

SMILES: c1ccc2cnccc2c1
- Activity [1]: 70%
